Test results published in paper PMC6695191 (PLoS Neglected Tropical Diseases, 2019).
Read-outs that look alike come from different tables or passages of the source.

Legend:
[1] = Selectivity assay on THP-1 macrophages (Alamar Blue); assay type: cell-based; settings: human
Procedure: Leishmania donovani axenic cultures (strain MHOM/ET/67/HU3) were maintained in M199 medium (pH 7.4) supplemented with 10% heat-inactivated fetal calf serum (FCS) and grown at 28°C [22].
After incubation for 72 hours (5% CO2, 37°C), medium was aspirated, compounds were added in serial dilutions (100 μL) and the plates were incubated for 120 h. All plates included negative controls and doxorubicin as a positive control. Following incubation, 10 μL of Alamar Blue was added to each well and then the plates were incubated for 3 hours. […] Growth inhibition was expressed as a percentage of the fluorescence of the negative control wells. IC50 values were determined as described above for the promastigote and amastigote assays.

[2] = test system: L. donovani intracellular amastigotes; test: L. donovani intracellular amastigote assay in PMA-differentiated THP-1 macrophages (Giemsa counting); assay type: cell-based, Leishmania donovani; settings: for Selectivity Index: CC50 THP-1/IC50 intracellular amastigotes; for IC50: L. donovani in THP-1 macrophages, 120 h incubation, mean ± SD, n = 2 biological replicates
Procedure: (§1) Leishmania donovani axenic cultures (strain MHOM/ET/67/HU3) were maintained in M199 medium (pH 7.4) supplemented with 10% heat-inactivated fetal calf serum (FCS) and grown at 28°C [22]. Human leukemia cells (THP-1 cell line) were maintained in RPMI-1640 (FCS 10%) and grown at 37°C and 5% CO2. Stock solutions of compounds 1–4 were prepared in 100% DMSO at 10 mM and tested in 2-fold serial dilutions (10 concentrations) in 96-well flat-bottom microtiter plates.
In the intracellular amastigote assay, THP-1 cells were seeded at 2 × 10^4/well (RPMI-1640, 100 μL) with phorbol 12-myristate 13-acetate (PMA) at 20 ng/mL for differentiation into macrophages. After incubation for 72 hours (5% CO2, 37°C), medium was aspirated and late-stage promastigotes were added (2 × 10^5/well, 100 μL). After 24 hours of incubation, medium was aspirated to clear extracellular parasites, compounds were added in serial dilutions (100 μL) and the plates were incubated for 120 hours. All plates included negative controls (100% parasite growth) and miltefosine as a positive control. Following incubation, medium was removed and the cells were fixed in methanol and stained with Giemsa. The average number of intracellular amastigotes per THP-1 cell was determined using an inverted microscope and a cell counter. Growth inhibition was expressed as a percentage of the average number of amastigotes per macrophage in the negative control wells. IC50 values were determined as described above for the promastigote assay.

[3] = test system: L. donovani promastigotes; test: L. donovani promastigote assay (Alamar Blue); assay type: cell-based, Leishmania donovani; settings: 72 h incubation at 28°C, mean ± SD, n = 2 biological replicates
Procedure: as §1
For the promastigote assay, L. donovani cells from axenic cultures in logarithmic growth were seeded at 1 x 10^5/well (M199, 80 μL) and compounds were added in serial dilutions (20 μL). All plates included negative controls (100% parasite growth) and miltefosine as a positive control. After 72 hours of incubation at 28°C, 10 μL of Alamar Blue (12.5 mg resazurin/100 mL distilled water) was added to each well and then the plates were incubated for 3 hours. This indicator of cell viability permeates into viable parasites, where it is reduced by NADPH and NADH enzymes to the highly fluorescent compound resorufin [24]. Following incubation, the plates were read with a microplate fluorometer under an excitation wave length of 536 nm and an emission wave length of 588 nm. […] If the test compound is active against L. donovani, the number of viable parasites is reduced, thus resulting a decrease in fluorescence. Growth inhibition was expressed as a percentage of the fluorescence of the negative control wells. IC50 values were determined using SigmaPlot. Dose-response curves were fitted using log (inhibitor concentration) vs. normalized response (between 0% and 100%) with variable slope, and IC50 values were automatically calculated.

[4] = test system: Escovopsis sp.; test: Antagonist bioassay of compounds and fractions against Escovopsis on ISP-2 agar; assay type: cell-based; settings: 100 μg compound, 21 days
Procedure: (§2) Each bacterium-fungus and compound-fungal challenge was replicated two times on ISP-2 agar. Bacteria strains were initially screened against Escovopsis sp. ICBG1251. Bacteria were placed in the center of ISP-2 agar Petri dishes and grown alone during 7 days; fungal strains were then point-inoculated near the edge of the culture (microbial strains distant from each other around 3 cm). Two microliters of compounds (100 μg) were placed in the center of Petri dishes and fungal strains were then point-inoculated near the edge of the plate. The positive control used was the miconazole. Challenges were monitored each 7 days and inhibition zone was measure after 21 days. Four different fungal strains were used for testing the pure compounds: Escovopsis sp. ICBG711 (from Trachymyrmex colony), Escovopsis sp. ICBG740 (from Acromyrmex colony), Escovopsis sp. ICBG1251 (from Atta colony) and Trichoderma sp. ICBG1100 (from attine colony).

[5] = test system: Trichoderma sp. ICBG1100; test: Antagonist bioassay of compounds against Trichoderma on ISP-2 agar; assay type: cell-based; settings: 100 μg compound, 21 days of growth at 28°C
Procedure: as §2

[6] = THP-1 macrophages, 120 h incubation, mean ± SD, n = 2 biological replicates, read-out: CC50 THP-1

| SMILES | Selectivity Index [2] | IC50 ([2]; Leishmania donovani) [µM] | IC50 ([3]; Leishmania donovani) [µM] | CC50 at 120 h [1, 6] [µM] | also measured |
| --- | --- | --- | --- | --- | --- |
| COc1cccc2c1C(=O)c1c(O)c3c(c(O)c1C2=O)C[C@@](O)(C(=O)CO)C[C@@H]3O[C@H]1C[C@H](N)[C@H](O)[C@H](C)O1 [Doxorubicin, reference compound] |  |  |  |  | CC50 at 120 h ([1]; THP-1 cells differentiated into macrophages with PMA, THP-1 macrophages, 120 h incubation, mean ± SD, n = 2 biological replicates, read-out: CC50 THP-1): 0.571 ± 0.068 µM |
| CO[C@@H]1C[C@@H](C[C@H]2CC[C@H](C)[C@H]([C@@H](C)C(=O)O)O2)O[C@]2(O[C@](C)([C@H]3CC[C@@](C)([C@@H]4O[C@@H]([C@H]5O[C@@](O)(CO)[C@H](C)C[C@@H]5C)C[C@@H]4C)O3)C[C@H]2C)[C@@H]1C [Compound 3, nigericin] | 88.91 | 0.129 ± 0.008 | 0.284 ± 0.072 |  | CC50 at 120 h [1]: 11.5 ± 0.68 µM |
| CCCCCCCCCCCCCCCCOP(=O)([O-])OCC[N+](C)(C)C [Miltefosine, reference compound] |  | 5.8 ± 0.59 | 4.74 ± 0.25 |  |  |
| C/C=C(\C)[C@H](O)[C@H](C)/C=C(C)/C=C/C/C(C)=C/Cc1nc(OC)cc(O)c1C [Compound 1, Mer-A2026B] |  |  |  |  | IC50 [2]: 49.9 ± 7.01 µM; IC50 [3]: 35.9 ± 1.83 µM; Antagonist activity against four different Escovopsis strains compared to compounds 2–4 [4]: higher antagonist activity; Activity against Trichoderma sp. [5]: active |
| C/C=C(\C)[C@H](O)[C@H](C)/C=C(C)/C=C/C/C(C)=C/Cc1nc(OC)c(OC)c(O)c1C [Compound 2, piericidin-A1] |  | > 64 | 38.4 ± 4.63 | > 64 |  |
| CC[C@@H]1C[C@H]2CC[C@H](O2)[C@H](C)C(=O)O[C@@H](C)C[C@@H]2CC[C@@H](O2)[C@@H](C)C(=O)O[C@H](CC)C[C@H]2CC[C@H](O2)[C@H](C)C(=O)O[C@@H](C)C[C@@H]2CC[C@@H](O2)[C@@H](C)C(=O)O1 [Compound 4, dinactin] | 656.11 | 0.018 ± 0.003 | 0.032 ± 0.005 | 11.8 ± 1.57 |  |
